One molecule from ChEMBL document CHEMBL5614417, “Discovery of AMPs from random peptides via deep learning-based model and biological activity validation” (Eur J Med Chem, 2024) can be followed below.

≈ marks a conversion by molar mass, not a printed value. Calls of active or inactive are those of the source. The calls are words filed in the database; no cut-off is given here. Where a SMILES comes first, the peptide text is derived from it.

The subject of data set [1] is Staphylococcus aureus. In words: Antibacterial activity against methicillin resistant Staphylococcus aureus 1 incubated for 18 hrs by visual inspection method. The format is functional.
Data set [2] has as its system Staphylococcus aureus. The experiment in a line: Antibacterial activity against methicillin resistant Staphylococcus aureus 4 incubated for 18 hrs by visual inspection method. In kind it is functional.
Another data set deals with Escherichia coli. The experiment in a line: Antibacterial activity against ESBL Escherichia coli 2 incubated for 18 hrs by visual inspection method. In kind it is functional.
Data set [3] relates to Acinetobacter baumannii. In words: Antibacterial activity against multidrug resistant Acinetobacter baumannii 1 incubated for 18 hrs by visual inspection method. The format is functional.
The test system of data set [4] is Acinetobacter baumannii. The experiment in a line: Antibacterial activity against multidrug resistant Acinetobacter baumannii 2 incubated for 18 hrs by visual inspection method. The format is functional.
In data set [5] the test system is Acinetobacter baumannii. The experiment in a line: Antibacterial activity against multidrug resistant Acinetobacter baumannii 5 incubated for 18 hrs by visual inspection method. The format is functional.
Data set [6] deals with Staphylococcus aureus. The experiment in a line: Antibacterial activity against Staphylococcus aureus ATCC 25923 incubated for 18 hrs in presence of 50 mM NaCl by visual inspection method. In kind it is functional.
For data set [7], the system named is Staphylococcus aureus. The experiment in a line: Antibacterial activity against Staphylococcus aureus ATCC 25923 incubated for 18 hrs in presence of 150 mM NaCl by visual inspection method. In kind it is functional.
In a further data set the test system is Erythrocyte. The experiment in a line: Hemolytic activity in rat erythrocytes at 250 ug/ml incubated for 1 hr. The format is toxicity, cell-based. Conditions: dose 250 µg/ml.
Data set [8] deals with Cell membrane. In words: Disruption of outer membrane integrity in Escherichia coli assessed as increase in fluorescence intensity by measuring NPN uptake at 1 to 4 times MIC by fluorescence based analysis. In kind it is cell membranes. The conditions noted are these: TDE = time-dependent effect.
Data set [9] has as its system Cell membrane. The experiment in a line: Induction of cell membrane damage in Escherichia coli at 4 times MIC incubated for 30 mins by PI staining based confocal laser scanning microscopic analysis. In kind it is cell membranes.
Data set [10] deals with Cell membrane. In words: Induction of cell membrane damage in Staphylococcus aureus assessed as change in morphology by measuring numerous blebs covered membrane at 4 times MIC incubated for 5 hrs by SEM analysis. In kind it is cell membranes.
The test system of data set [11] is Staphylococcus aureus. In words: Inhibition of biofilm formation in Staphylococcus aureus at 16 times MIC incubated for 24 hrs by crystal violet staining based assay. In kind it is functional.
Data set [12] can be described thus: Toxicity in BALB/c mouse assessed as heart damage at 400 mg/kg, ip measured after 48 hrs by H and E staining based assay. In kind it is organism-based. Conditions: in vivo.

For orientation: MIC means the least concentration at which growth counts as inhibited.

As for `CC[C@H](C)[C@H](NC(=O)[C@H](Cc1ccccc1)NC(=O)[C@@H](N)Cc1c[nH]c2ccccc12)C(=O)N[C@H](C(=O)N[C@@H](Cc1c[nH]c2ccccc12)C(=O)N[C@@H](Cc1c[nH]cn1)C(=O)N[C@@H](Cc1c[nH]c2ccccc12)C(=O)N[C@@H](CCCNC(=N)N)C(=O)N[C@@H](CCCCN)C(=O)N[C@H](C(=O)N1CCC[C@H]1C(=O)N1CCC[C@H]1C(=O)N[C@@H](CCCCN)C(N)=O)[C@@H](C)CC)[C@@H](C)CC` (H-WFIIWHWRKIPPK-NH2), the MIC against Staphylococcus aureus [1] is 7.5 µg/mL (≈ 4.15 µM); against Staphylococcus aureus [2], 7.5 µg/mL (≈ 4.15 µM); against Escherichia coli it was 15 µg/mL (≈ 8.3 µM); with Acinetobacter baumannii [3], 7.5 µg/mL (≈ 4.15 µM); against Acinetobacter baumannii [4], 7.5 µg/mL (≈ 4.15 µM); against Acinetobacter baumannii [5], 7.5 µg/mL (≈ 4.15 µM). Also, the MIC in the data set with Staphylococcus aureus [6] and in the data set with Staphylococcus aureus [7] was 7.5 µg/mL throughout. In addition, the Activity entry in the data set on Erythrocyte was “Non-Toxic”; in the data set with Cell membrane [8] it was “Tde”; in data set [12], “Non-Toxic”. In addition, the result with Cell membrane [9] and in the data set with Cell membrane [10] was Active. Besides, the “inhibition (INH)” value in the data set on Staphylococcus aureus [11] was over 90%.
